Data published in US5866575A, “Method of inhibiting HIV integrase” (Lundblad; Leif J. I., priority 1994, dated 1999).

Experiments:
[1] = system: rats; test: Acute toxicity; format: in vivo
[2] = General toxicity after repeated administration, rats; details: rat, in vivo, iv, for 28 days, read-out: NOEL (no observable effect level) i.v.
Description: (§1) General toxicity after repeated administration NOEL (no observable effect level)

[3] = General toxicity after repeated administration, rabbits; details: rabbit, in vivo, topical or ocular, dermal, for 28 days, repeated administration (except for local toxicity), read-out: NOEL (no observable effect level) dermal
Description: as §1

## Cc1cc2nc3c4ccccc4n(CCN(C)C)c3nc2cc1C [compound II, 2,3-dimethyl-6-(N,N-dimethylaminoethyl)-6H-indoloquinoxaline]
[1]; i.v.
  LD i.v.: > 100 mg/kg
[1]; p.o.
  LD p.o.: > 800 mg/kg
[2]
  NOAEL at 672 h: 12.5 mg/kg
[3]
  NOAEL at 672 h: 200 mg/kg
